Source: patent publication US20030166528A1, “Antifungal compound” (priority 2000, published 2003)
Where two headings read alike, the source gives them in different places. Non-standard residues stand in square brackets, D forms with d. Residues, ends and D or L forms follow the SMILES beside them. 1Nal = N[C@@H](Cc1cccc2ccccc12)C(=O)O; 2Thi = N[C@@H](Cc1cccs1)C(=O)O; Nva = CCC[C@H](N)C(=O)O

Assays:
[1] = format: in vitro ADME; details: for half-life: 37° C., 250 μg/mL, read-out: biological half life
Description: XMP.676 was also tested for stability using a bioassay generally according to Example 5 of U.S. Pat. No. 5,858,974, wherein the peptide is incubated with SDB, RPMI, mouse serum or human serum for varying amounts of time and the resulting serum-treated product is tested for retention of antifungal activity against C. albicans SLU-1 in a FACScan assay as follows.
A solution of XMP.676 (0.5 mg/mL) was mixed with medium or fresh mouse serum or fresh human serum at a 1:1 ratio to make a 250 μg/mL solution. The resulting mixture was incubated at 37° C. Small sample volumes were removed from the incubation mixture at specific times and placed at −20° C.
Antifungal activity of the peptide/serum (or peptide/media) samples was tested as follows. Mid-log phase C. albicans were suspended in SDB at a concentration of about 1×10^6 CFU/ml. The suspension was aliquoted in 1 mL portions into polystyrene tubes. The peptide/serum mixture sample were thawed and 50 μL of each sample was aliquoted into each tube and incubated at 37° C. for various times. The cells were then pelleted and resuspended in a solution of 10 μg/mL propidium iodide/PBS and incubated for 5 minutes. Propidium iodide is a fluorescent exclusionary dye that is only taken up by the cell when cell death has occurred. Cells were analyzed for fluorescence on a FACScan instrument using cells treated with 70% ethanol as the control for 100% death, and untreated cells for zero death.

[2] = tested on: C. albicans SLU-1; format: cell-based; details: radial diffusion assay
Description: XMP.676 was tested for in vitro antifungal activity in radial diffusion assays against C. albicans SLU-1 generally according to Examples 2 and 3 of U.S. Pat. No. 5,858,974.

[3] = tested on: C. albicans SLU-1; format: in vivo, DBA/2 mice
Description: XMP.676 was tested for in vivo antifungal activity in mice with systemic C. albicans infection, as measured by effect on mortality, generally according to Example 4 of U.S. Pat. No. 5,858,974.
Briefly described, DBA/2 mice were inoculated with an IV injection of approximately 7×10^4 CFU C. albicans SLU-1. Desired doses of XMP.676 were prepared from a stock solution of 1 mg/mL XMP.676 in a 0.9% saline solution. Treatment with XMP.676, other antifungal agents or saline via either IV or IP routes was initiated immediately after fungal challenge. Subsequent treatments were administered q.o.d. through day 15. Mortality was recorded daily for 28 days.

[4] = in vivo; details: DBA/2, mouse, iv, well tolerated dose
[5] = tested on: C. albicans; format: in vivo, mice; details: 5 mg/kg twice daily for 14 days, intraperitoneal; preliminary test
[6] = tested on: C. albicans; format: cell-based; details: on C. albicans, with fluconazole and amphotericin-B
Description: (§1) In addition, checkerboard assays were used to evaluate synergy, additivity or antagonism between XMP.676 and fluconazole, amphotericin B or itraconazole. These assays were carried out on both C. albicans and A. fumigatus. Results from these experiments were used to calculate fractional inhibitory concentration (FIC) values. […] At lower concentrations of both compounds, additional synergy may be observed.

[7] = tested on: A. fumigatus; format: cell-based; details: on A. fumigatus, with tested concentrations of amphotericin-B and itraconazole
Description: as §1

[8] = in vivo
[9] = tested on: Aspergillus fumigatus; format: in vivo, mice
Description: XMP.676 was additionally tested in cyclosporin-A (CSA) immunosuppressed mice systemically infected with about 5×10^5 CFU Aspergillus fumigatus. Specifically, mice were immunosuppressed by IP injection of 50 mg/kg CSA at day-1. CSA injections continued daily for 9 consecutive days (to day 8). On Day 0, animals received the second CSA injection immediately followed by an inoculum of A. fumigatus in a 0.25 mL volume via a lateral tail injection. Treatment with XMP.676 began one hour following fungal challenge at doses of 0.3, 1.0, 3.0 or 10.0 mg/kg IP, was repeated one day later, and then continued q.o.d. for a total of 7 treatments (Days 0, 1, 3, 5, 7, 9, 11). One group was treated with saline as a control, and another group received 1.0 mg/kg amphotericin B for comparison. Mortality was recorded for 28 days. […] XMP.676 is also be tested in the absence of immunosuppression with CSA.

[10] = format: in vivo, rabbits
Description: Increasing doses of various […], or via intraperitoneal injection, to determine the maximum dose of peptide that could be administered without causing observable symptoms such as respiratory distress and loss of righting reflex. […] […] When administered via rapid intravenous injection, doses of XMP.676 higher than 2.5 mg/kg were not well tolerated, but slow injection increased the well tolerated dose two-fold to 5.0 mg/kg. When administered intraperitoneally, XMP.676 was well tolerated at doses up to and including 15.0 mg/kg. […] XMP.676 was also tested in cytarabine-treated conscious rabbits (wherein 30 mg/kg cytarabine was administered intravenously daily for 5 days prior to administration of XMP.676).

Which “stability in microbial media” value ([1]; all types of microbial media examined (SDB, RPMI)) does the source give for `CCC[C@H](NC(=O)[C@H](CCC(N)=O)NC(=O)[C@@H](NC(=O)[C@H](CCC)NC(=O)[C@H](Cc1cccc2ccccc12)NC(=O)[C@H](N)CCCCN)[C@@H](C)CC)C(=O)N[C@H](C(=O)N[C@@H](Cc1cccs1)C(=O)N[C@H](CCCCN)C(=O)N[C@H](CCCCN)C(N)=O)C(C)C` [XMP.676, LysD-(Naph-1-Ala)-Norvaline-Ile-Gln-Norvaline-Val-(Thienyl-Ala)-LysD-LysD] (H-[dK][1Nal][Nva]IQ[Nva]V[2Thi][dK][dK]-NH2) here?
Its value is “excellent stability”.

And the half-life ([1]; human serum)?
The half-life was over 3 h.

And the half-life ([1]; mouse serum)?
Its half-life is over 3 h.

And the “lowest minimum inhibitory concentration (MIC) observed” value [2]?
Its value is 171 pmol.

What about the reduction in mortality ([3]; 0.5 mg/kg IV q.o.d., p<0.001, 28 days) of the same molecule?
Its reduction in mortality is “statistically significant reduction in mortality”.

What about the reduction in mortality ([3]; 1.0 mg/kg IV q.o.d., p=0.019, 28 days) of the same molecule?
Its reduction in mortality is “reduction in mortality”.

And the reduction in mortality ([3]; 2.5 mg/kg IV q.o.d., all five experiments (p=0.005, p<0.001, p<0.001, p=0.002, p=0.015))?
The reduction in mortality was “statistically significant reduction in mortality”.

What about the reduction in mortality ([3]; 5 mg/kg IP q.o.d. or q.d., three of four experiments (p=0.0001, p=0.012, p=0.018)) of the same molecule?
Its reduction in mortality is “statistically significant reduction in mortality”.

What about the “protection, slow injection relative to rapid bolus injection” value ([3]; IV, slow (approximately 20 seconds) vs rapid (less than about 5 seconds), 2.5 mg/kg in FIG. 2) of the same molecule?
Its value is “greater delay in onset of death and greater protection”.

What about the “benefit of intravenous treatment q.o.d. versus q.d. or b.i.d.” value ([3]; intravenous) of the same molecule?
Its value is “greater benefit”.

What about the MTD [4] of the same molecule?
Its MTD is 2.5 mg/kg.

And the “reduction in mortality compared to saline control” value [5]?
Its value is “did not provide a reduction in mortality”.

What about the “synergy, additivity or antagonism (FIC)” value [6] of the same molecule?
The value was “strong additivity or synergy”.

What about the “synergy, additivity or antagonism (FIC)” value [7] of the same molecule?
The value was “additivity”.

And the well tolerated dose ([8]; DBA/2, mouse, iv)?
Its well tolerated dose is 5.0 mg/kg.

And the well tolerated doses ([8]; mouse, ip)?
Its well tolerated doses is at most 15.0 mg/kg.

And the reduction in mortality ([9]; 1.0 mg/kg IP q.o.d., p=0.0003, 28 days)?
The reduction in mortality was “highly statistically significant reduction in mortality”.

And the reduction in mortality ([9]; 3.0 mg/kg IP)?
The reduction in mortality was “no reduction in mortality”.

What about the reduction in mortality ([9]; 10.0 mg/kg IP) of the same molecule?
The reduction in mortality was “no reduction in mortality”.

And the adverse events ([10]; 2.5 mg/kg IV, 30 minute single infusion)?
The adverse events was “did not result in any significant adverse events”.

And the adverse events ([10]; doses higher than 2.5 mg/kg IV infusion)?
Its adverse events is “resulted in mortality”.
